Laboratory results from patent US6075132A, “Ursodeoxycholic acid derivatives and methods for producing them” (Bio Research Corporation of Yokohama, priority 1998, dated 2000).
≈ marks a conversion by molar mass, not a printed value. Like-named read-outs stand apart in the source and are kept apart here.

Assay: Solubility in water (membrane-filtered supernatant after 18 h stirring; phenol-sulfuric acid method and HPLC)
Type: physicochemical
Settings: for solubility in water relative to that of ursodeoxycholic acid: 1080 min
Method: 20 mg of the ursodeoxycholic acid derivative prepared above and shown in Table 1 below was sampled, to which was added 0.2 ml of water and stirred for 18 hours. The resulting supernatant was taken out through filtration with a membrane filter (0.45μm), and analyzed according to the phenol-sulfuric acid method and through HPLC. The condition for HPLC was as follows:
Column: YMC's YMC-Pack ODS-AQ-303 (4.6×250 mm)
Detector: Photo-diode array detector (202 nm)
Amount Charged into Column: 20 μl

Compound | solubility at 18 h (water, stirred for 18 hours, read-out: Solubility in Water) | solubility in water relative to that of ursodeoxycholic acid | solubility at 18 h (water) | Solubility in Water (water, 18 h)
C[C@H](CCC(=O)O)[C@H]1CC[C@H]2[C@@H]3[C@@H](O)C[C@@H]4C[C@H](O)CC[C@]4(C)[C@H]3CC[C@]12C [Ursodeoxycholic acid, ursodeoxycholic acid] | 38 µg/mL (≈ 96.8 µM) | – | – | –
C[C@H](CCC(=O)OCCOC1O[C@H](CO)[C@@H](O)[C@H](O)[C@H]1O)[C@H]1CC[C@H]2[C@@H]3[C@@H](O)C[C@@H]4C[C@H](O)CC[C@]4(C)[C@H]3CC[C@]12C (stereo partly drawn) [24-GLG-ursodeoxycholic acid, glycosyloxyethyl-24-ursodeoxycholic acid] | – | about 13 times | 511 µg/mL (≈ 853 µM) | –
C[C@H](CCC(=O)O)[C@H]1CC[C@H]2[C@@H]3[C@@H](OC(=O)COC4O[C@H](CO)[C@@H](O)[C@H](O)[C@H]4O)C[C@@H]4C[C@H](OC(=O)COC5O[C@H](CO)[C@@H](O)[C@H](O)[C@H]5O)CC[C@]4(C)[C@H]3CC[C@]12C (stereo partly drawn) [3,7-GLG-ursodeoxycholic acid, diglycosyloxyacetyl-3,7-ursodeoxycholic acid] | – | about 2500 times | 95000 µg/mL (≈ 114000 µM) | 95 mg/mL (≈ 114000 µM)
